Assay results: ChEMBL document CHEMBL1201862, “PubChem BioAssay data set” (2004)
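Grown in 96-well plates, cells were treated for 48 hours with each compound at five concentrations. Insufficient inhibition: endpoint recorded as highest concentration tested. At the GI50, growth is halved.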 The source made the active and inactive calls. Cut-off read from the data, not from the text of the source: active = GI50 up to about 1.1 µM and inactive = higher.

Tests used:
Experiment in all cases: inhibition of tumour cell growth, NCI panel, 48 h
[1] = system: HT-29
[2] = system: IGROV-1
[3] = system: MOLT-4
[4] = system: Malme-3M
[5] = system: SNB-75
[6] = system: NCI-H23
[7] = system: COLO 205
[8] = system: EKVX
[9] = system: SR
[10] = system: TK-10
[11] = system: U-251
[12] = system: ACHN
[13] = system: NCI-H226
[14] = system: RPMI-8226
[15] = system: SF-268
[16] = system: SF-295
[17] = system: SK-MEL-5
[18] = system: OVCAR-3

SMILES | GI50 [1] | GI50 [2] | GI50 [3] | GI50 [4] | GI50 [5] | GI50 [6] | GI50 [7] | GI50 [8] | GI50 [9] | GI50 [10] | GI50 [11] | GI50 [12] | GI50 [13] | GI50 [14] | GI50 [15] | GI50 [16] | GI50 [17] | GI50 [18]
Oc1cc(-c2ccc3c(c2)OCO3)nc2cc3c(cc12)OCO3 | 37.8 µM (inactive) | > 100 µM (inactive) | 59.8 µM (inactive) | 21.2 µM (inactive) | 1.01 µM (active) | 32.4 µM (inactive) | 31.5 µM (inactive) | > 100 µM (inactive) | 6.35 µM (inactive) | 63.8 µM (inactive) | 30.5 µM (inactive) | 46.1 µM (inactive) | 34.4 µM (inactive) | 37.5 µM (inactive) |  |  |  | 
C=CCNC(=O)NCCCCC(NC(C)=O)C(=O)NCc1ccccc1 (stereo not drawn) | > 100 µM (inactive) | > 100 µM (inactive) | > 100 µM (inactive) | > 100 µM (inactive) | > 100 µM (inactive) | > 100 µM (inactive) | > 100 µM (inactive) | > 100 µM (inactive) |  | > 100 µM (inactive) | > 100 µM (inactive) | > 100 µM (inactive) | > 100 µM (inactive) | > 100 µM (inactive) | > 100 µM (inactive) | > 100 µM (inactive) | > 100 µM (inactive) | > 100 µM (inactive)
COc1ccc2c(c1)Oc1cc(O)ccc1[C@@H]2c1ccccc1C(=O)NC(C)c1ccccc1 (stereo partly drawn) | 15.3 µM (inactive) | 18.2 µM (inactive) | 5.73 µM (inactive) | 15 µM (inactive) | 14.7 µM (inactive) | 16.1 µM (inactive) | 16.4 µM (inactive) | 13.3 µM (inactive) |  | 23.7 µM (inactive) | 15 µM (inactive) | 15.6 µM (inactive) | 18.3 µM (inactive) | 6.49 µM (inactive) | 19.1 µM (inactive) | 13 µM (inactive) | 17.7 µM (inactive) | 15.9 µM (inactive)
Cc1ccc(C(=O)NCCN(C)C)c2nc3ccccc3cc12 | 0.462 µM (active) | 6.58 µM (inactive) | 0.608 µM (active) | 2.54 µM (inactive) | 1.52 µM (inactive) |  | 1.57 µM (inactive) | 1.73 µM (inactive) |  | 1.54 µM (inactive) | 0.644 µM (active) | 0.45 µM (active) | 1.15 µM (inactive) | 4.24 µM (inactive) |  | 1.07 µM (active) | 1.52 µM (inactive) | 1.32 µM (inactive)
N#C/C(=C1\SCC(=O)N1c1ccccc1)c1nc2ccccc2[nH]1 | > 100 µM (inactive) | > 100 µM (inactive) | > 100 µM (inactive) | > 100 µM (inactive) | > 100 µM (inactive) | > 100 µM (inactive) | > 100 µM (inactive) | > 100 µM (inactive) |  | > 100 µM (inactive) | > 100 µM (inactive) | > 100 µM (inactive) | > 100 µM (inactive) |  | > 100 µM (inactive) | > 100 µM (inactive) | > 100 µM (inactive) | > 100 µM (inactive)
CCN(CC)CC(C(=O)Nc1c(C)cccc1C)/C(C)=N\NC(=O)c1ccncc1 (stereo not drawn) | > 100 µM (inactive) | > 100 µM (inactive) | > 100 µM (inactive) | > 100 µM (inactive) | > 100 µM (inactive) | > 100 µM (inactive) | > 100 µM (inactive) |  | > 100 µM (inactive) | > 100 µM (inactive) | > 100 µM (inactive) | > 100 µM (inactive) | > 100 µM (inactive) |  | > 100 µM (inactive) | > 100 µM (inactive) | > 100 µM (inactive) | > 100 µM (inactive)
COC(=O)N/N=C(\C(=O)Nc1cccc([N+](=O)[O-])c1)c1nc2ccc([N+](=O)[O-])cc2nc1O | 60.7 µM (inactive) | 64.6 µM (inactive) | 52.7 µM (inactive) | > 100 µM (inactive) | 85.7 µM (inactive) | > 100 µM (inactive) | 37.1 µM (inactive) | > 100 µM (inactive) | > 100 µM (inactive) | > 100 µM (inactive) |  | 24.7 µM (inactive) | > 100 µM (inactive) | 32.7 µM (inactive) | 0.38 µM (active) | > 100 µM (inactive) | 34 µM (inactive) | 49.8 µM (inactive)
O=C(O)CNS(=O)(=O)c1ccc(NC(=O)CI)cc1 | 21.2 µM (inactive) | 26.5 µM (inactive) | 12.1 µM (inactive) | 18.8 µM (inactive) | 17.1 µM (inactive) | 18.3 µM (inactive) | 26.2 µM (inactive) | 32.7 µM (inactive) |  | 63 µM (inactive) | 19.1 µM (inactive) | 52 µM (inactive) | > 100 µM (inactive) | 15.7 µM (inactive) | 18.8 µM (inactive) | 26.3 µM (inactive) | 22.2 µM (inactive) | 24 µM (inactive)
O=[N+]([O-])c1cnn(C2=CNc3ccccc3N=C2)c1 | > 100 µM (inactive) |  | > 100 µM (inactive) | > 100 µM (inactive) | 43.8 µM (inactive) | > 100 µM (inactive) | > 100 µM (inactive) | > 100 µM (inactive) | > 100 µM (inactive) | > 100 µM (inactive) | > 100 µM (inactive) | > 100 µM (inactive) | > 100 µM (inactive) |  | > 100 µM (inactive) | > 100 µM (inactive) |  | > 100 µM (inactive)
Cc1ccc2c(ccc(/C=C\c3cc(C)c4cccnc4c3O)[n+]2C)c1 |  | 6.24 µM (inactive) | 1.05 µM (active) | 8.41 µM (inactive) |  | 2.67 µM (inactive) | 9.89 µM (inactive) | 15.9 µM (inactive) | 2.12 µM (inactive) |  | 1.75 µM (inactive) | 5.65 µM (inactive) | 1.4 µM (inactive) | 0.401 µM (active) | 9.25 µM (inactive) | 10 µM (inactive) | 0.372 µM (active) | 2.01 µM (inactive)
O=P1(c2ccccc2)c2ccccc2-c2ccccc21 |  | > 100 µM (inactive) | 47.5 µM (inactive) |  | 68.9 µM (inactive) | > 100 µM (inactive) | > 100 µM (inactive) | > 100 µM (inactive) |  | > 100 µM (inactive) |  |  | > 100 µM (inactive) | 74.1 µM (inactive) | > 100 µM (inactive) | 57.8 µM (inactive) | 44.4 µM (inactive) | 71 µM (inactive)
CC(C)(C)CC(C)(C)NCC(O)COc1ccc(C(C)(C)c2ccc(OCC(O)CNC(C)(C)CC(C)(C)C)cc2)cc1 (stereo not drawn) | 0.403 µM (active) | 1.77 µM (inactive) | 0.34 µM (active) | 1.59 µM (inactive) | 1.6 µM (inactive) | 1.76 µM (inactive) | 0.376 µM (active) | 1.72 µM (inactive) | 0.366 µM (active) |  | 0.7 µM (active) | 1.77 µM (inactive) | 1.97 µM (inactive) | 1.46 µM (inactive) | 1.86 µM (inactive) | 1.68 µM (inactive) | 1.32 µM (inactive) | 1.77 µM (inactive)
COC(=O)C1=C(C[S+]([O-])c2ccc([N+](=O)[O-])cc2[N+](=O)[O-])C2C=CC1C2 (stereo not drawn) | 17.7 µM (inactive) | 64.9 µM (inactive) | 22.2 µM (inactive) | 21.4 µM (inactive) | 25.3 µM (inactive) | 26.4 µM (inactive) | 19.2 µM (inactive) | 23.6 µM (inactive) |  | 23.4 µM (inactive) | 20 µM (inactive) | 19.8 µM (inactive) | 31.4 µM (inactive) | 77.1 µM (inactive) | 41 µM (inactive) | 65 µM (inactive) | 63.2 µM (inactive) | 23.1 µM (inactive)
N#CC(C#N)=c1ccc(=C2NCC3CCCN23)cc1 (stereo not drawn) | > 100 µM (inactive) | > 100 µM (inactive) | > 100 µM (inactive) | > 100 µM (inactive) | > 100 µM (inactive) |  | > 100 µM (inactive) |  | > 100 µM (inactive) | > 100 µM (inactive) | > 100 µM (inactive) |  | > 100 µM (inactive) | > 100 µM (inactive) | > 100 µM (inactive) | > 100 µM (inactive) | > 100 µM (inactive) | 
CCOC(=O)/C(C)=C(/O)C(=O)OCC | > 100 µM (inactive) | > 100 µM (inactive) | > 100 µM (inactive) | > 100 µM (inactive) | > 100 µM (inactive) | > 100 µM (inactive) | > 100 µM (inactive) | > 100 µM (inactive) |  | > 100 µM (inactive) | > 100 µM (inactive) | > 100 µM (inactive) | > 100 µM (inactive) | > 100 µM (inactive) | > 100 µM (inactive) | > 100 µM (inactive) | > 100 µM (inactive) | > 100 µM (inactive)
COC1O[C@@H]2COC(C)(C)O[C@@H]2C(=O)N1Nc1ccc([N+](=O)[O-])cc1 (stereo partly drawn) | 63 µM (inactive) | > 100 µM (inactive) | > 100 µM (inactive) | > 100 µM (inactive) | > 100 µM (inactive) | > 100 µM (inactive) | > 100 µM (inactive) | > 100 µM (inactive) |  | > 100 µM (inactive) | > 100 µM (inactive) | > 100 µM (inactive) | > 100 µM (inactive) | 21 µM (inactive) | > 100 µM (inactive) | > 100 µM (inactive) | > 100 µM (inactive) | > 100 µM (inactive)
COC(=O)[C@@]12C3=NO[C@]1(C(=O)OC)C(O[Si](C)(C)C(C)(C)C)C1OC(C)(C)OC1[C@@H]2[C@@H](OCc1ccccc1)CC3 (stereo partly drawn) | 33 µM (inactive) | > 100 µM (inactive) | 7.52 µM (inactive) |  | 9.66 µM (inactive) | 58.7 µM (inactive) | 83.8 µM (inactive) | > 100 µM (inactive) |  | > 100 µM (inactive) | > 100 µM (inactive) |  | > 100 µM (inactive) | 6.1 µM (inactive) |  | > 100 µM (inactive) | 85.5 µM (inactive) | 39.7 µM (inactive)
